# System: A2780 ovarian cancer cell line
# Experiment: Cell growth inhibition of Ru compounds on A2780 ovarian cancer cell line (24-well trays, Coulter counter)
# Format: cell-based
# Conditions: 24 hours drug exposure, further 3 days growth, cell count
# Method: The compounds are tested on 24-well trays. Cells growing in a flask are harvested just before they become confluent, counted using a haemocytometer and diluted down with media to a concentration of 1×10^4 cells per ml. The cells are then seeded in the 24-well trays at a density of 1×10^4 cells per well (i.e. 1 ml of the diluted cell suspension is added to each well). The cells are then left to plate down and grow for 72 hours before adding the compounds of the invention.
# The Ru complexes are weighed out and made up to a concentration of 1 mg/ml with deionised water then sonicated until they go into solution. The appropriate volume of the Ru solution is added to 5 ml of media to make it up to a concentration of 100 μM for each drug. This 100 μM solution is then serially diluted to make up the 10 μM, 1 μM and 0.1 μM solutions.
# The media is removed from the cells and replaced with 1 ml of the media dosed with drug. Each concentration is done in duplicate. A set of control wells are left on each plate, containing media without drug.
# The cells are left exposed to the drugs for 24 hours and then washed with phosphate buffered saline before fresh media is added.
# They are allowed to grow on for a further 3 days before being counted using a Coulter counter.
# Preparing cells for counting:
# Media is removed and 1 ml of PBS is added to the cells.
# 250 μl of trypsin is added and cells left in incubator for a few minutes to allow the monolayers to detach.
# Once trypsinised, 250 μl of media is added to each well to neutralise the trypsin. 200 μl of this suspension is added to 10 ml of NaCl for counting.
# Using the above protocol, a number of compounds of the invention were tested on A2780 ovarian cancer cell line.
row,Molecule,IC50 [µM]
1,"COC(=O)c1ccccc1.F[P-](F)(F)(F)(F)F.[Cl][Ru-]1[NH2+]CC[NH2+]1 [Example 8, [η^6-C6H5CO2CH3)RuCl(H2NCH2CH2NH2—N,N)]^+[PF6]^−]",55
2,"F[P-](F)(F)(F)(F)F.[I][Ru-]1[NH2+]CC[NH2+]1.c1ccccc1 [Example 4, [(η^6-C6H6)RuI(H2NCH2CH2NH2—N,N)]^+[PF6]^−]",20
3,[(η^6-p-cymene)RuCl(CH3CN)2]^+[PF6]^− [Example 1],7
4,"[(η^6-p-cymene)RuCl(H2NCH2CH2NH2—N,N)]^+[PF6]^− [Example 5]",8
5,[(η^6-p-cymene)RuCl2(isonicotinamide)] [Example 7],11
6,"F[P-](F)(F)(F)(F)F.F[P-](F)(F)(F)(F)F.[Cl][Ru-]1[NH2+]CC[NH+]1CCCCCC[NH+]1CC[NH2+][Ru-]1[Cl].c1ccc(-c2ccccc2)cc1.c1ccc(-c2ccccc2)cc1 (centres unmarked) [Example 11, {[η^6-C6H5C6H5)RuCl]2[H2N(CH2)2NH(CH2)6NH(CH22NH2—N,N′,N″,N′″]}^2+2PF6^−]",5
7,"[(η^6-p-cymene)RuI(H2NCH2CH2NH2—N, N)]^+[PF6]^− [Example 6]",6
8,"F[P-](F)(F)(F)(F)F.[Cl][Ru-]1[NH2+]CC[NH2+]1.c1ccc(-c2ccccc2)cc1 [Example 9, [(η^6-C6H5C6H5)RuCl(H2NCH2CH2NH2—N,N)]^+[PF6]^−]",6
9,"F[P-](F)(F)(F)(F)F.[Cl][Ru-]1[NH2+]CC[NH2+]1.c1ccccc1 [Example 3, [(η^6-C6H6)RuCl(H2NCH2CH2NH2—N,N)]^+[PF6]^−]",8
10,[(η^6-p-cymene)RuBr(CH3CN)2]^+[PF6]^− [Example 2],8
11,"CC[NH+]1CC[NH2+][Ru-]1[Cl].F[P-](F)(F)(F)(F)F.c1ccc(-c2ccccc2)cc1 [Example 10, {(η^6-C6H5C6H5)RuCl[H2N(CH2)2NH(CH2CH3)]}^+PF6^−]",6

# Source: patent publication US6979681B2, “Half-sandwich ruthenium (II) compounds comprising nitrogen containing ligands for treatment of cancer” (University Court, The University of Edinburgh, priority 1999, dated 2005)
